In general, melting point refers to the temperature of the solid-liquid transition.

`CCOC1=NNC(=O)C1=Cc1[nH]c(C)c(C(=O)O)c1C` [Example 151, 4-[(4-Carboxy-3,5-dimethylpyrrol-2-yl)methylene]-3-ethoxy-2-pyrazolin-5-one]: the melting point was in the range of 310 to 312 °C. As to `CCOC1=NNC(=O)C1=Cc1ccc([N+](=O)[O-])[nH]1` [Example 152, 3-Ethoxy-4-[(5-nitropyrrol-2-yl)methylene]-2-pyrazolin-5-one], the melting point lay within 208 to 210 °C. Turning to `CCOC1=NNC(=O)C1=Cc1cc([N+](=O)[O-])c[nH]1` [Example 153, 3-Ethoxy-4-[(4-nitropyrrol-2-yl)methylene]-2-pyrazolin-5-one], the melting point was 287 to 289 °C. The result for `CCOC1=NNC(=O)C1=Cc1cc(C(=O)O)c[nH]1` [Example 154, 4-[(4-Carboxypyrrol-2-yl)methylene]-3-ethoxy-2-pyrazolin-5-one] reads 290 to 293 °C; that for `CCOC1=NNC(=O)C1=Cc1[nH]c(C)c(C(=O)NCCN(C)C)c1C` [Example 155, 4-{[3,5-Dimethyl-4-(2-dimethylaminoethylaminocarbonyl)pyrrol-2-yl)methylene}-3-ethoxy-2-pyrazolin-5-one], 158 to 160 °C; that for `CCOC1=NNC(=O)C1=Cc1[nH]c(Cl)c(CC(=O)OC)c1C(=O)OC` [Example 156, 4-[(5-Chloro-3-methoxycarbonyl-4-methoxycarbonylmethylpyrrol-2-yl)methylene]-3-ethoxy-2-pyrazolin-5-one], 225 to 227 °C. The result for `CCOC1=NNC(=O)C1=Cc1[nH]cc(C)c1CCC(=O)O` [Example 157, 4-{[3-(2-Carboxyethyl)-4-methylpyrrol-2-yl]methylene}-3-ethoxy-2-pyrazolin-5-one] reads 255 to 257 °C; that for `CCOC(=O)c1c(C)[nH]c(C=C2C(=O)NN=C2OCC)c1C` [Example 158, 4-[(3,5-Dimethyl-4-ethoxycarbonylpyrrol-2-yl)methylene]-3-ethoxy-2-pyrazolin-5-one], 232 to 234 °C.

For the compound `CCOC(=O)c1c(C)[nH]c(C=C2C(=O)NN=C2C(F)(F)F)c1C` [Example 160, 4-[(3,5-Dimethyl-4-ethoxycarbonylpyrrol-2-yl)methylene]-3-trifluoromethyl-2-pyrazolin-5-one], the melting point was in the range of 252 to 254 °C.

`CCOC(=O)c1c(C)[nH]c(C=C2C(=O)NN=C2c2ccno2)c1C` [Example 161, 4-[(3,5-Dimethyl-4-ethoxycarbonylpyrrol-2-yl)methylene]-3-(5-isoxazolyl)-2-pyrazolin-5-one] displayed a melting point of 255 to 257 °C. `CCOC(=O)c1c(C)[nH]c(C=C2C(=O)NN=C2c2cccc(N)c2)c1C` [Example 162, 3-(3-Aminophenyl)-4-[(3,5-Dimethyl-4-ethoxycarbonylpyrrol-2-yl)methylene]-2-pyrazolin-5-one] registered a melting point of 214 to 216 °C. `CCOC(=O)c1c[nH]c(C=C2C(=O)NN=C2c2cnccn2)c1-c1ccccc1` [Example 164, 4-[(4-Ethoxycarbonyl-3-phenylpyrrol-2-yl)methylene]-3-pyrazinyl-2-pyrazolin-5-one] registered a melting point of 255 to 257 °C. The result for `CCN(CC)Cc1c(C)[nH]c(C=C2C(=O)NN=C2c2cnccn2)c1C` [Example 166, 4-[(4-Diethylaminomethyl-3,5-dimethylpyrrol-2-yl)methylene]-3-pyrazinyl-2-pyrazolin-5-one] reads 242 to 244 °C; that for `Cc1[nH]c(C=C2C(=O)NN=C2c2cnccn2)c(C)c1CN1CCCCC1` [Example 167, 4-[(3,5-Dimethyl-4-piperidinomethylpyrrol-2-yl)methylene]-3-pyrazinyl-2-pyrazolin-5-one], 240 to 242 °C. The result for `Cc1[nH]c(C=C2C(=O)NN=C2c2ccno2)c(C)c1CN1CCCCC1` [Example 168, 4-[(3,5-Dimethyl-4-piperidinomethylpyrrol-2-yl)methylene]-3-(5-isoxazolyl)-2-pyrazolin-5-one] reads 215 to 217 °C. For the compound `Cc1[nH]c(C=C2C(=O)NN=C2c2ccno2)c(C)c1CN(C)C` [Example 169, 4-[(3,5-Dimethyl-4-dimethylaminomethylpyrrol-2-yl)methylene]-3-(5-isoxazolyl)-2-pyrazolin-5-one], the melting point lay in the range of 161 to 163 °C. The result for `Cc1[nH]c(C=C2C(=O)NN=C2c2cnccn2)cc1CN(C)C` [Example 170, 4-[(5-Methyl-4-dimethylaminomethylpyrrol-2-yl)methylene]-3-pyrazinyl-2-pyrazolin-5-one] reads 193 to 195 °C; that for `Cc1[nH]c(C=C2C(=O)NN=C2C2CC2)c(C)c1CN(C)C.O=C(O)/C=C\C(=O)O` [Example 174, 3-Cyclopropyl-4-[(3,5-dimethyl-4-dimethylaminomethylpyrrol-2-yl)methylene]-2-pyrazolin-5-one maleate], 199 to 201 °C; that for `Cc1[nH]c(C=C2C(=O)NN=C2c2cnccn2)c(C)c1C(=O)CCCl` [Example 175, 4-{[4-(3-Chloropropionyl)-3,5-dimethylpyrrol-2-yl]methylene}-3-pyrazinyl-2-pyrazolin-5-one], 213 °C (dec.). The result for `Cc1cc(C2=NNC(=O)C2=Cc2[nH]c(C)c(CN(C)C)c2C)no1` [Example 177, 4-[(3,5-Dimethyl-4-dimethylaminomethylpyrrol-2-yl)methylene]-3-(5-methyl-3-isoxazolyl)-2-pyrazolin-5-one] reads 242 to 244 °C; that for `Cc1[nH]c(C=C2C(=O)NN=C2c2cnccn2)c(C)c1CN1CCC(O)CC1` [Example 178, 4-{[3,5-Dimethyl-4-(4-hydroxypiperidinomethyl)pyrrol-2-yl]methylene}-3-pyrazinyl-2-pyrazolin-5-one], 255 to 257 °C. Take `Cc1[nH]c(C=C2C(=O)NN=C2c2cnccn2)c(C)c1CN.O=C(O)/C=C\C(=O)O` [Example 179, 4-[(4-Aminomethyl-3,5-dimethylpyrrol-2-yl)methylene]-3-pyrazinyl-2-pyrazolin-5-one maleate]: the melting point was 205 to 208 °C. Regarding `O=C1NN=C(c2cnccn2)C1=Cc1cc(CN2CCC(Cc3ccccc3)CC2)c[nH]1` [Example 180, 4-{[4-(4-Benzylpiperidino)methylpyrrol-2-yl]methylene}-3-pyrazinyl-2-pyrazolin-5-one], the melting point was 211 to 214 °C. The result for `Cc1[nH]c(C=C2C(=O)NN=C2c2cnccn2)c(C)c1CCO` [Example 181, 4-{[3,5-Dimethyl-4-(2-hydroxyethyl)pyrrol-2-yl]methylene}-3-pyrazinyl-2-pyrazolin-5-one] reads 306 to 308 °C; that for `Cc1[nH]c(C=C2C(=O)NN=C2C2CC2)c(C)c1CCO` [Example 184, 3-Cyclopropyl-4-{[3,5-Dimethyl-4-(2-hydroxyethyl)pyrrol-2-yl]methylene}-2-pyrazolin-5-one], 244 to 246 °C.

Regarding `CCNCCc1c(C)[nH]c(C=C2C(=O)NN=C2c2cnccn2)c1C` [Example 185, 4-{[3,5-Dimethyl-4-(2-ethylaminoethyl)pyrrol-2-yl]methylene}-3-pyrazinyl-2-pyrazolin-5-one], the melting point was in the range of 192 to 194 °C.

Compound `CCN(CC)CCCc1c(C)[nH]c(C=C2C(=O)NN=C2c2cnccn2)c1C` [Example 186, 4-{[4-(3-Diethylaminopropyl)-3,5-dimethylpyrrol-2-yl]methylene}-3-pyrazinyl-2-pyrazolin-5-one] gave a melting point of 208.1 °C. The result for `Cc1[nH]c(C=C2C(=O)NN=C2c2cnccn2)c(C)c1CCCO` [Example 187, 4-{[3,5-Dimethyl-4-(3-hydroxypropyl)pyrrol-2-yl]methylene}-3-pyrazinyl-2-pyrazolin-5-one] reads 273 to 275 °C.

On to `CCOC1=NNC(=O)C1=Cc1[nH]c(C)c(C(=O)CN(C)C)c1C` [Example 189, 4-[(3,5-Dimethyl-4-dimethylaminoacetylpyrrol-2-yl)methylene]-3-ethoxy-2-pyrazolin-5-one], for which the melting point was 198 °C. `Cc1[nH]c(C=C2C(=O)NN=C2c2cnccn2)c(C)c1CCN(C)C` [Example 191, 4-{[3,5-Dimethyl-4-(2-dimethylaminoethyl)pyrrol-2-yl]methylene}-3-pyrazinyl-2-pyrazolin-5-one]: the melting point is 216 °C.

For `Cc1[nH]c(C=C2C(=O)NN=C2c2cnccn2)c(C)c1CCCCO` [Example 192, 4-{[3,5-Dimethyl-4-(4-hydroxybutyl)pyrrol-2-yl]methylene}-3-pyrazinyl-2-pyrazolin-5-one], the melting point came to 222 °C.

Compound `CCN(CC)CCCCc1c(C)[nH]c(C=C2C(=O)NN=C2c2cnccn2)c1C` [Example 193, 4-{[4-(4-Diethylaminobutyl)-3,5-dimethylpyrrol-2-yl]methylene}-3-pyrazinyl-2-pyrazolin-5-one] registered a melting point of 184 °C. The result for `CCN(CC)CC(=O)c1c(C)[nH]c(C=C2C(=O)NN=C2c2cnccn2)c1C` [Example 196, 4-[(4-Diethylaminoacetyl-3,5-dimethylpyrrol-2-yl)methylene]-3-pyrazinyl-2-pyrazolin-5-one] reads 199 °C; that for `Cc1cc(C(C)C)c(C=C2C(=O)NN=C2c2cnccn2)[nH]1` [Example 197, 4-[(3-Isopropyl-5-methylpyrrol-2-yl)methylene]-3-pyrazinyl-2-pyrazolin-5-one], 244 °C; that for `Cc1[nH]c(C=C2C(=O)NN=C2c2cnccn2)c(C(C)C)c1CN(C)C` [Example 199, 4-[(Dimethylaminomethyl-3-isopropyl-5-methylpyrrol-2-yl)methylene]-3-pyrazinyl-2-pyrazolin-5-one], 227 °C. The result for `Cc1[nH]c(C=C2C(=O)NN=C2C2CC2)c(C(C)C)c1CN(C)C` [Example 200, 3-Cyclopropyl-4-[(dimethylaminomethyl-3-isopropyl-5-methylpyrrol-2-yl)methylene]-2-pyrazolin-5-one] reads 190 to 192 °C; that for `Cc1[nH]c(C=C2C(=O)NN=C2c2cnccn2)c(C)c1CCNC1CC1` [Example 203, 4-{[4-(2-Cyclopropylaminoethyl)-3,5-dimethylpyrrol-2-yl]methylene}-3-pyrazinyl-2-pyrazolin-5-one], 210 to 218 °C.

Values taken from US7060822B1, “2-pyrazolin-5-ones” (Abbott GmbH & Co. KG, priority 1999, dated 2006).
